pEC50: −log10 of the molar value.

What all share (assay type): cell-based
Conditions in all cases: Table 3, compounds 201-283

In one assay the target is T1, TRPML3 (Homo sapiens, UniProt Q8TDD5).
T1 construct: expressed in transfected cells
T1 sequence (Q8TDD5 1-553): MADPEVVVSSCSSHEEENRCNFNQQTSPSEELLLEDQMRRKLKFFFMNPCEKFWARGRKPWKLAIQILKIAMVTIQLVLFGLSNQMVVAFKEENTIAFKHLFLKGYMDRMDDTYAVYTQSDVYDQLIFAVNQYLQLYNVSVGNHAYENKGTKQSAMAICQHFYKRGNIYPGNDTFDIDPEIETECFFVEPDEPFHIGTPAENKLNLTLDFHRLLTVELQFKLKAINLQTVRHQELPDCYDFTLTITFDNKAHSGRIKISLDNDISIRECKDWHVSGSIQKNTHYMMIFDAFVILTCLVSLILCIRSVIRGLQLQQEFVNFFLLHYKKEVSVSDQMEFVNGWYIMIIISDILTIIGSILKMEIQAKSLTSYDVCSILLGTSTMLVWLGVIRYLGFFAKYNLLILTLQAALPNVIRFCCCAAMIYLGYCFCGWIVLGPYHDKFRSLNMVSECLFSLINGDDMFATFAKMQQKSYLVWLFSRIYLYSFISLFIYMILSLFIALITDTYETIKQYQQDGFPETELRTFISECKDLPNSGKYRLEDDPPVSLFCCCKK
The assay is described as follows: Fluorescent TRPML3 assay (as for TRPML1). An outline of the steps: (§1)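 EC50 came from non-linear regression of percent activity, set against on-plate positive and negative controls, using Fluo4 fluorescence (ex 480, em 540 nm). Compounds ran in triplicate from 6 nM to 20 µM final in half-log steps. Doxycycline-induced (0.5 ug/mL) HEK-293 Trex cells expressing surface-directed mutant channel were in 10 mM calcium Ringer's.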

A further assay deals with human TRPML1 (Homo sapiens, UniProt Q9GZU1). The assay is described as follows: Fluorescent TRPML1 assay (Fluo4-AM calcium fluorescence, HEK-293 Trex cells). An outline of the steps:
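Agonist EC50 from non-linear regression of percent activity versus on-plate controls, calcium signal read at 480/540 nm. Compounds spanned 6 nM–20 μM final in triplicate. Cells: doxycycline-induced HEK-293 Trex with cell-surface human TRPML1 mutant, Fluo4-AM loaded, in Ringer's containing 10 mM calcium.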

For the next assay, the target named is T2, TRPML2 (Homo sapiens, UniProt Q8IZK6).
T2 construct: expressed in transfected cells
T2 sequence (Q8IZK6 1-566): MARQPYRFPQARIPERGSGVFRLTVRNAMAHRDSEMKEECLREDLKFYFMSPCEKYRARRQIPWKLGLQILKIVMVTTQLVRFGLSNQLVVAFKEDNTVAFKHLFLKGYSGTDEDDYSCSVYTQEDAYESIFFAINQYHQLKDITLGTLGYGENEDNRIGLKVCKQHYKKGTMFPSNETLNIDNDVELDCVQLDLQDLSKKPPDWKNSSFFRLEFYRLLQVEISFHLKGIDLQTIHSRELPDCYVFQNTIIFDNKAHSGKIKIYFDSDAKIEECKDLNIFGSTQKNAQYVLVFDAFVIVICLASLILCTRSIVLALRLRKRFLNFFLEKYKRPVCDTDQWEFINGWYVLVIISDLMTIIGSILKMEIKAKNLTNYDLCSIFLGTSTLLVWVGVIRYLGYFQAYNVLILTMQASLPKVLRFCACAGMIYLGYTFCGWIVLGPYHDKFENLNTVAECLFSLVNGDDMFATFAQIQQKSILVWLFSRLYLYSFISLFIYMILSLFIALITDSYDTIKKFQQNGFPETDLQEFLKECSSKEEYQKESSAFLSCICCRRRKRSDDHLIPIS
The assay is described as follows: Fluorescent TRPML2 assay (as for TRPML1). The procedure, abridged: as §1

Chain of human TRPML1 (Q9GZU1 whole entry L15A/L16A/L577A/L578A, form open): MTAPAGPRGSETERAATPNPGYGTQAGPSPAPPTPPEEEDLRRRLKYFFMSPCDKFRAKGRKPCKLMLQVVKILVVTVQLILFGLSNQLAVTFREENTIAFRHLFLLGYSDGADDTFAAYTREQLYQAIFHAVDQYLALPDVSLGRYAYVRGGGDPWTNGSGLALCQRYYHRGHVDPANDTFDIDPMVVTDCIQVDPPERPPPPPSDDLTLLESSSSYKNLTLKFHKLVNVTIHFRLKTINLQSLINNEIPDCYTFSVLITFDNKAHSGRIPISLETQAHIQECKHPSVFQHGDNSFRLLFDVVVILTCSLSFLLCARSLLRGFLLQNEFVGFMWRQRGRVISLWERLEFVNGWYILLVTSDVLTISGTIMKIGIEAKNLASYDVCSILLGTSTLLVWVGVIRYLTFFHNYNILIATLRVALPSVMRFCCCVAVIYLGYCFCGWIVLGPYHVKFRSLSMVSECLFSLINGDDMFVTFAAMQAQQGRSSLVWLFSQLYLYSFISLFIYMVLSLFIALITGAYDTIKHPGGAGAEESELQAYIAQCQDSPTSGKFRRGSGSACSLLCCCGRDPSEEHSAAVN

A word on the pEC50: it is −log10 of the EC50, conventionally taken in molar units. In the case of `[2H]C([2H])([2H])C(C(=O)N1C[C@H](C)N(c2ncnc3c2c(-c2ccccc2F)cn3-c2cc(C#N)ccn2)C[C@H]1C)(C([2H])([2H])[2H])C([2H])([2H])[2H]` [Compound 231, 2-(4-((2S,5R)-4-(2,2-bis(methyl-d3)propanoyl-3,3,3-d3)-2,5-dimethylpiperazin-1-yl)-5-(2-fluorophenyl)-7H-pyrrolo[2,3-d]pyrimidin-7-yl)isonicotinonitrile], the pEC50 at TRPML3, at human TRPML1 and on TRPML2 was more than 7.00 in each case.

In the case of `COC(C)(C)C(=O)N1C[C@H](C)N(c2ncnc3c2c(-c2ccccc2F)cn3-c2cc(C#N)ccn2)C[C@H]1C` [Compound 232, 2-(5-(2-fluorophenyl)-4-((2S,5R)-4-(2-methoxy-2-methylpropanoyl)-2,5-dimethylpiperazin-1-yl)-7H-pyrrolo[2,3-d]pyrimidin-7-yl)isonicotinonitrile], the pEC50 at TRPML3, at human TRPML1 and on TRPML2 was more than 7.00 each time.

Regarding `C[C@@H]1CN(c2ncnc3c2c(-c2ccccc2F)cn3-c2cc(C#N)ccn2)[C@@H](C)CN1C(=O)C1(F)CC1` [Compound 235, 2-(4-((2S,5R)-4-(1-fluorocyclopropane-1-carbonyl)-2,5-dimethylpiperazin-1-yl)-5-(2-fluorophenyl)-7H-pyrrolo[2,3-d]pyrimidin-7-yl)isonicotinonitrile], the figures for the negative logarithm of the EC50 (pEC50) on TRPML3, on human TRPML1 and at TRPML2 were 5.70 to 6.30, more than 7.00 and 6.30 to 7.00, respectively.

On to `C[C@@H]1CN(c2ncnc3c2c(C2CCC2)cn3-c2cc(C#N)ccn2)[C@@H](C)CN1C(=O)C(C)(C)C` [Compound 237, 2-(5-cyclobutyl-4-((2S,5R)-2,5-dimethyl-4-pivaloylpiperazin-1-yl)-7H-pyrrolo[2,3-d]pyrimidin-7-yl)isonicotinonitrile], for which the negative-log EC50 (pEC50) at TRPML3 is 5.70 to 6.30; at human TRPML1, 6.30 to 7.00; at TRPML2 it was less than 5.70.

Regarding `C[C@@H]1CN(c2ncnc3c2c(C2CCC2)cn3-c2cc(C#N)ccn2)[C@@H](C)CN1C(=O)CC(C)(C)C(F)(F)F` [Compound 239, 2-(5-cyclobutyl-4-((2S,5R)-2,5-dimethyl-4-(4,4,4-trifluoro-3,3-dimethylbutanoyl)piperazin-1-yl)-7H-pyrrolo[2,3-d]pyrimidin-7-yl)isonicotinonitrile], the pEC50 at TRPML3 is more than 7.00; at human TRPML1 it was more than 7.00; at TRPML2 it was 5.70 to 6.30.

For the compound `C[C@@H]1CN(c2ncnc3c2c(C2CCC2)cn3-c2cc(C#N)ccn2)[C@@H](C)CN1C(=O)C(C)(C)C(F)(F)F` [Compound 240, 2-(5-cyclobutyl-4-((2S,5R)-2,5-dimethyl-4-(3,3,3-trifluoro-2,2-dimethylpropanoyl)piperazin-1-yl)-7H-pyrrolo[2,3-d]pyrimidin-7-yl)isonicotinonitrile], the negative-log EC50 (pEC50) on TRPML3 was more than 7.00; on human TRPML1, 6.30 to 7.00; at TRPML2, 6.30 to 7.00.

With `COC(C)(C)C(=O)N1CCN(c2ncnc3c2c(-c2ccccc2F)cn3-c2cc(C#N)ccn2)[C@@H](C)C1` [Compound 242, (S)-2-(5-(2-fluorophenyl)-4-(4-(2-methoxy-2-methylpropanoyl)-2-methylpiperazin-1-yl)-7H-pyrrolo[2,3-d]pyrimidin-7-yl)isonicotinonitrile], the negative logarithm of the EC50 (pEC50) on TRPML3 is 6.30 to 7.00; at human TRPML1, more than 7.00; at TRPML2 it was 6.30 to 7.00.

For the compound `COC(C)(C)C(=O)N1C[C@H](C)N(c2ncnc3c2c(C2CC2)cn3-c2cccc(F)c2)C[C@H]1C` [Compound 246, 1-((2R,5S)-4-(5-cyclopropyl-7-(3-fluorophenyl)-7H-pyrrolo[2,3-d]pyrimidin-4-yl)-2,5-dimethylpiperazin-1-yl)-2-methoxy-2-methylpropan-1-one], the negative-log EC50 (pEC50) on TRPML3 is 6.30 to 7.00; on human TRPML1, 6.30 to 7.00; on TRPML2, 5.70 to 6.30.

Turning to `C[C@@H]1CN(c2ncnc3c2c(-c2ccccc2F)cn3-c2cc(F)ccn2)[C@@H](C)CN1C(=O)C1(F)CC1` [Compound 247, (1-fluorocyclopropyl)((2R,5S)-4-(5-(2-fluorophenyl)-7-(4-fluoropyridin-2-yl)-7H-pyrrolo[2,3-d]pyrimidin-4-yl)-2,5-dimethylpiperazin-1-yl)methanone], the negative logarithm of the EC50 (pEC50) was 5.70 to 6.30 at TRPML3, more than 7.00 at human TRPML1 and 5.70 to 6.30 on TRPML2.

For `C[C@@H]1CN(c2ncnc3c2c(C2CCC2)cn3-c2cccc(F)c2)[C@@H](C)CN1C(=O)C(C)(C)C` [Compound 250, 1-((2R,5S)-4-(5-cyclobutyl-7-(3-fluorophenyl)-7H-pyrrolo[2,3-d]pyrimidin-4-yl)-2,5-dimethylpiperazin-1-yl)-2,2-dimethylpropan-1-one], the negative-log EC50 (pEC50) is 5.70 to 6.30 at TRPML3, 6.30 to 7.00 on human TRPML1 and less than 5.70 on TRPML2.

Regarding `C[C@@H]1CN(c2ncnc3c2c(C2CCC2)cn3-c2cccc(F)c2)[C@@H](C)CN1C(=O)CC(C)(C)C(F)(F)F` [Compound 251, 1-((2R,5S)-4-(5-cyclobutyl-7-(3-fluorophenyl)-7H-pyrrolo[2,3-d]pyrimidin-4-yl)-2,5-dimethylpiperazin-1-yl)-4,4,4-trifluoro-3,3-dimethylbutan-1-one], the pEC50 is 6.30 to 7.00 at TRPML3, 6.30 to 7.00 on human TRPML1 and 5.70 to 6.30 on TRPML2.

Turning to `C[C@@H]1CN(c2ncnc3c2c(C2CCC2)cn3-c2cccc(F)c2)[C@@H](C)CN1C(=O)C(C)(C)C(F)(F)F` [Compound 252, 1-((2R,5S)-4-(5-cyclobutyl-7-(3-fluorophenyl)-7H-pyrrolo[2,3-d]pyrimidin-4-yl)-2,5-dimethylpiperazin-1-yl)-3,3,3-trifluoro-2,2-dimethylpropan-1-one], the pEC50 was 6.30 to 7.00 at TRPML3, 6.30 to 7.00 on human TRPML1 and 5.70 to 6.30 on TRPML2.

Regarding `C[C@@H]1CN(c2ncnc3c2c(C2CCC2)cn3-c2cccc(Cl)c2)[C@@H](C)CN1C(=O)C(C)(C)C` [Compound 253, 1-((2R,5S)-4-(7-(3-chlorophenyl)-5-cyclobutyl-7H-pyrrolo[2,3-d]pyrimidin-4-yl)-2,5-dimethylpiperazin-1-yl)-2,2-dimethylpropan-1-one], the figures for the negative logarithm of the EC50 (pEC50) at TRPML3, on human TRPML1 and on TRPML2 were 6.30 to 7.00, more than 7.00 and 5.70 to 6.30, respectively.

On to `C[C@@H]1CN(c2ncnc3c2c(C2CCC2)cn3-c2cc(F)cc(F)c2)[C@@H](C)CN1C(=O)C(C)(C)C` [Compound 255, 1-((2R,5S)-4-(5-cyclobutyl-7-(3,5-difluorophenyl)-7H-pyrrolo[2,3-d]pyrimidin-4-yl)-2,5-dimethylpiperazin-1-yl)-2,2-dimethylpropan-1-one], for which the pEC50 at TRPML3 was 5.70 to 6.30; on human TRPML1, 5.70 to 6.30; on TRPML2 it was less than 5.70.

For the compound `C[C@@H]1CN(c2ncnc3c2c(C2CCC2)cn3-c2cc(F)cc(F)c2)[C@@H](C)CN1C(=O)CC(C)(C)C(F)(F)F` [Compound 256, 1-((2R,5S)-4-(5-cyclobutyl-7-(3,5-difluorophenyl)-7H-pyrrolo[2,3-d]pyrimidin-4-yl)-2,5-dimethylpiperazin-1-yl)-4,4,4-trifluoro-3,3-dimethylbutan-1-one], the pEC50 is 5.70 to 6.30 at TRPML3, 5.70 to 6.30 on human TRPML1 and less than 5.70 on TRPML2.

Take `C[C@@H]1CN(c2ncnc3c2c(C2CCC2)cn3-c2cccc(Cl)c2)[C@@H](C)CN1C(=O)C(C)(C)C(F)(F)F` [Compound 257, 1-((2R,5S)-4-(7-(3-chlorophenyl)-5-cyclobutyl-7H-pyrrolo[2,3-d]pyrimidin-4-yl)-2,5-dimethylpiperazin-1-yl)-3,3,3-trifluoro-2,2-dimethylpropan-1-one]: the pEC50 at TRPML3 is 5.70 to 6.30; at human TRPML1, more than 7.00; on TRPML2, 6.30 to 7.00.
